Laboratory results taken from US20110003796A1, “METHOD FOR THE TREATMENT OF PSYCHIC DISORDERS” (Consejo Nacional de Investigaciones Cientificas y Tecnicas …, priority 2009, published 2011).
Entries after “also recorded” stand apart in the source; their conditions may differ. Structures can show the parent of a compound that is named as a salt.

Tests used:
[1] = system: rats; experiment: Forced swimming test (FST); assay type: in vivo, rat (male Wistar); details: for climbing in FST / immobility in FST / swimming in FST: 16 days
Procedure: (§1) The experiments were carried out with male Wistar rats with a body weight of 200-386 g. Rats were kept in a cycle of 12 hours of light (8:00 a 20:00) and 12 hours of darkness with free access to water and food except during the tests. The rats were divided in four groups, housed in individual polyethylene cages of with three or four rats each (55×38×30 cm) and fed with standard diet for the controls (C) or diet supplemented with omega-3 fatty acids (ω3). The animals were used only once in each test. All tests were performed in agreement with the Guidelines for the Care and Use of Laboratory Animals provided by National Institutes of Health of United States of America.
The Fluoxetine Hydrochloride (FLX) and mirtazapine (MTZ) were administered intra-peritoneally (IP) in a volume equivalent to 1 cc/kg and were freshly prepared each morning. The FLX was dissolved in distilled water and MZT was solubilized in isotonic saline (0.9% NaCl) plus three or four drops of glacial acetic acid to dissolve this solution. […] All control rats were given injections of saline.
In all cases antidepressant drugs or the saline solution were given once a day for 16 days, the final injection was given 24 hours before the test session (FIGS. 6 and 18).
The omega-3 fatty acids were given as diet supplement in the food enriched with salmon oil for 16 days. Each 1000 mg of highly concentrated salmon oil contains about 30% of omega-3, from which 17% is EPA and 13% is DHA; therefore there were 40 mg of omega-3 fatty acids per gram of enriched food. Rats of the ω3 group received a dose of about 0.72 g/kg/day of omega-3 fatty acids.
The swimming sessions were carried out placing the rats in Plexiglas cylinders (46 cm of height and 20 cm of diameter) which had been previously filled with water (23-25° C.) to 30 cm from the bottom. All swimming sessions were performed between 12:00 and 18:00 hours.
Two sessions were performed: an initial pre-test for 15 minutes followed by a 5-minute test, after 16 days. The drugs were given between both sessions.
Rats were studied at 5-second intervals during the session of forced swimming session. At each interval of 5 seconds, the predominant behavior was assigned to one of the following categories: (1) immobility: flotation in water without fighting, only doing the necessary movements to keep the head out of the water; (2) swimming, making the movements of active swimming, plus the ones necessary to keep simply the head out of the water (i.e., moving around the cylinder); and (3) climbing, making active movements with fore hints out of the water, usually against walls. The scoring for each behavior was expressed as the total of records per session of 5 minutes.

[2] = system: rats; details: cited from earlier work; for antidepressant effect in prior studies: FLX 1 mg/kg, MTZ 1 mg/kg; for effect on the FST in prior studies: FLX 10 mg/kg, MTZ 20 mg/kg, similar test conditions
[3] = system: rats; experiment: Open field test (locomotor activity); assay type: in vivo, rat (male Wistar)
Procedure: These studies were performed exactly the same way as the studies of FST had been carried. All rats that experimented the first day of FST (pre-test), received the different treatments during 16 days. On day 17 they were placed in the cage of open field (60×60×60 cm) with the floor divided in squares (15×15 cm). The tests were performed between 14:00 and 17:00 hours, illuminated with an electric bulb of 75 W and placed 75 cm above the floor of the cage, in a quiet room. The locomotion was measured by the number of squares they enter with the four legs (counts), over a period of 5 minutes. After withdrawing the animal, the open field was carefully cleaned with a damp wipe.

[4] = Body weight gain during chronic treatment; assay type: in vivo, rat (male Wistar)
Procedure: Tests were performed to analyze the body weight gain during chronic treatments with antidepressants and/or omega-3 fatty acids.
as §1

[5] = fluoxetine 10 mg/kg ip and/or omega-3 0.72 g/kg
[6] = mirtazapine 20 mg/kg ip and/or omega-3 0.72 g/kg

SMILES	effect of treatment on behaviors in FST ([1]; fluoxetine 1 mg/kg ip alone, two-factor ANOVA)	climbing in FST [1, 5]	immobility in FST [1, 5]	swimming in FST [1, 5]	effect of treatment on the FST ([1]; fluoxetine sub-optimal doses lower than 1 mg/kg (0.1 and 0.5 mg/kg) alone)	antidepressant effect in prior studies [2]	effect on the FST in prior studies [2]	spontaneous locomotor activity in open field ([3]; fluoxetine 1 mg/kg and/or omega-3 0.72 g/kg)	spontaneous locomotor activity in open field test ([3]; fluoxetine 10 mg/kg and/or omega-3 0.72 g/kg)	body weight ([4]; fluoxetine 10 mg/kg and/or omega-3 0.72 g/kg, vs control group)	body weight gain ([4]; fluoxetine sub-optimal dose 1 mg/kg)	climbing in FST [1, 6]	immobility in FST [1, 6]	swimming in FST [1, 6]	time of immobility in FST ([1]; mirtazapine sub-optimal dose 1 mg/kg ip and/or omega-3 0.72 g/kg/day, vs control)	spontaneous locomotor activity in open field ([3]; mirtazapine 1 mg/kg and/or omega-3 0.72 g/kg/day)	spontaneous locomotor activity in open field test ([3]; mirtazapine 20 mg/kg and/or omega-3 0.72 g/kg)	body weight gain ([4]; mirtazapine 20 mg/kg and/or omega-3 0.72 g/kg, chronic)	body weight gain ([4]; mirtazapine sub-optimal dose 1 mg/kg and/or omega-3 0.72 g/kg, 1 mg/kg)	body weight gain ([4]; mirtazapine sub-optimal dose 1 mg/kg and/or omega-3 0.72 g/kg, listed as Mirtazapine, 1 mg/kg)
CNCCC(Oc1ccc(C(F)(F)F)cc1)c1ccccc1 (stereo not shown) [fluoxetine, Fluoxetine Hydrochloride]	no effect of treatment with FLX	without modifying the behavioral levels of climbing	reduces immobility	increases swimming	did not have any effect on the FST	not showing an antidepressant effect	produce a more robust effect on the FST	None of these treatments with antidepressant effects in the FST affected the levels of activity	None of these treatments with antidepressant effects in the FST affected the activity levels	Body weight was significantly lower	Body weight gain was reduced although in a lesser extend	–	–	–	–	–	–	–	–	–
CN1CCN2c3ncccc3Cc3ccccc3C2C1 (stereo not shown) [mirtazapine]	–	–	–	–	–	not showing an antidepressant effect	produce a more robust effect on the FST	–	–	–	–	increase	significantly reduced the immobility	corresponding increase in the swimming	did not significantly change the time of immobility	did not interfere with the locomotor activity	did not interfere with the responses of locomotor activity	significantly reduced the body weight gain; also recorded: significant decrease in body weight	does not interfere with the weight gain	did not produce any effect
